In PMC4076632, “VAV3 mediates resistance to breast cancer endocrine therapy” (Breast Cancer Research : BCR, 2014) one finds Ki data, which are given here for 1 molecule.

The target in the test is T1, estrogen receptor α (ERα) (Homo sapiens, UniProt P03372).
T1 construct: gene ESR1
T1 sequence (P03372 1-595): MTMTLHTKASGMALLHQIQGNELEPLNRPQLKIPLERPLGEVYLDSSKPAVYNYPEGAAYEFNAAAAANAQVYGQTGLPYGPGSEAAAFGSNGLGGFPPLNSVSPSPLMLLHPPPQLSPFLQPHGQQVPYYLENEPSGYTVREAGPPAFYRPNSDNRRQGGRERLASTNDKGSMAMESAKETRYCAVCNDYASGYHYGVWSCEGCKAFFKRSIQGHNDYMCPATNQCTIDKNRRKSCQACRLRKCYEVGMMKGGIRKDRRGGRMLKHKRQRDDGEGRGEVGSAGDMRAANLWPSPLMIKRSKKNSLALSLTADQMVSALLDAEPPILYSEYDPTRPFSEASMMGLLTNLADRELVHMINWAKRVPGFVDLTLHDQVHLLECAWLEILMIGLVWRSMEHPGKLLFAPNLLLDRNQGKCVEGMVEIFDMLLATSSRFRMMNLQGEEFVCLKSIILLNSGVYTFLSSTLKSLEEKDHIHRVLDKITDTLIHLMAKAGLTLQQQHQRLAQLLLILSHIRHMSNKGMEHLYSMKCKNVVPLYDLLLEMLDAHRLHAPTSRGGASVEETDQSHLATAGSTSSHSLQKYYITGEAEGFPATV
The experiment in a line: ERα agonist fluoligand competition assay (Cerep) with fluorescein-labeled estradiol. The class given is binding.

pKi: −log10 of the molar value.

The molecule `OCc1ccc(-c2nn(Cc3ccccc3)c3ccccc23)o1` [YC-1, 3-(5′-hydroxymethyl-2′-furyl)-1-benzylindazole] had a pKi of 4.59.

By pKi is commonly meant the Ki on a negative log10 scale, so that one unit is a factor of ten.
